Measurements published in patent publication US20180318285A1, “METHODS FOR TREATMENT OF AUTISM SPECTRUM DISORDERS” (PRESIDENT AND FELLOWS OF HARVARD COLLEGE, priority 2015, published 2018).
Read-outs that look alike come from different tables or passages of the source.

What was measured:
[1] = cited from earlier work
[2] = system: MeCP2 knockdown primary cortical neurons; assay: Ribosomal RNA (Bioanalyzer 18S/28S) and total RNA content of MeCP2 knockdown neurons treated with topotecan; type: cell-based, mouse; settings: 50 nM topotecan
[3] = system: MeCP2 hemizygous male mice; assay: In vivo topotecan treatment by intracerebroventricular osmotic pump: survival and behavior score; parameters: species or system mouse; settings: 25 μM topotecan in 28-day osmotic pump to right lateral ventricle, 8 week old mice, N=7-8
Experimental: MeCP2 hemizygous male mice at 8 weeks of age (Jackson Labs) were separated into two equal groups based weight. Using standard stereotaxic techniques, cannula (Alzet, Brain Infusion Kit 3) were guided to the right lateral ventricle (from bregma; A/P 1 mm, LV 1 mm) and connected to an osmotic pump (Alzet, 1004, 28-day release) that was implanted subcutaneously. The osmotic pumps had been previously loaded with either vehicle (50 mM tartaric acid) or 25 μM topotecan and primed at 37° C. for approximately 2 days prior to implantation. All mice survived surgery and the following postoperative day. Survival monitoring began on postoperative day 2 and behavioral scoring began on postoperative day 4. MeCP2 behavior was scored as previously reported by Guy et al. Science 2005. Briefly, 6 behavioral domains are monitored to capture the progression of the MeCP2 phenotype: locomotor activity, gait, hindlimb clasp, tremor, breathing, and overall condition. Each behavioral domain is scored as 0 (absence), 1 (mild to moderate), or 2 (severe), and summed to give the total behavioral score. Survival statistics: p=0.09; Mantel-Cox. Behavioral statistics: * p<0.05; 2-way ANOVA, Fisher's LSD. N=7-8.

[4] = system: MeCP2-repressed (MR) long genes in MeCP2 knockdown primary cortical neurons; assay: Nanostring nCounter expression of MeCP2-repressed long genes in MeCP2 shRNA knockdown primary cortical neurons treated with topotecan; type: cell-based, mouse
Experimental: Primary cortical neurons were prepared from E16.5 mouse embryos and cultured as described by Kim et al. For lentiviral-mediated shRNA knockdown, virus was prepared as described in Tiscornia et al.^48 using the MeCP2 shRNA and control shRNA plasmids previously validated in Zhou et al.^49. Virus was concentrated and titrated using the GFP signal expressed from IRES GFP in the virus. After one day in vitro (DIV), cells were infected with lentivirus (knockdown or control) at an MOI of ˜5, such that >90% of cells were infected. […] RNA samples were processed and analyzed using the Nanostring nCounter assay as described above, with the exception that 6 control genes were used for normalization. […]
For non-amplification-based gene expression analysis, Nanostring nCounter reporter CodeSets were designed to detect candidate MeCP2-repressed genes in 250 ng of total RNA extracted from MeCP2 KO and R306C mice. […] Briefly, total RNA was incubated at 65° C. with reporter and capture probes in hybridization buffer overnight, and captured probes were purified and analyzed on the nCounter Digital Analyzer. […] Significant differences between wild-type and MeCP2 KO or MeCP2 R306C samples (p<0.01) were also detected by paired two-tailed t-test comparing the paired mean values for each gene (averaged across samples within each genotype) between genotypes

For COc1cccc2c1C(=O)c1c(O)c3c(c(O)c1C2=O)C[C@@](O)(C(=O)CO)C[C@@H]3O[C@H]1C[C@H](N)[C@H](O)[C@H](C)O1 [doxorubicin], the “doxorubicin concentrations in the brain” value ([1]; injection of the drug alone or the uncoated nanoparticle) is given as “no detectable increase” and the “doxorubicin concentrations in the brain” value ([1]; nanoparticles overcoated with polysorbate 80, intravenous injection of 5 mg/kg) is given as “up to 6 μg/g”.

With CC[C@@]1(O)C(=O)OCc2c1cc1n(c2=O)Cc2cc3c(CN(C)C)c(O)ccc3nc2-1 [topotecan, Topotecan] the “effect on decreased ribosomal RNA content of neurons lacking MeCP2” value [2] was “partially reverses the decreased ribosomal RNA content”, the “Behavioral statistics, p (2-way ANOVA, Fisher's LSD), total behavioral score, topotecan versus vehicle” value [3] was < 0.05 and the “Survival statistics, p (Mantel-Cox), topotecan versus vehicle” value [3] was 0.09. The “concentration of topotecan that most effectively reverses overexpression of long genes” value ([4]; MeCP2 knockdown cortical neurons) was 50 nM and the “reversal of long gene misregulation (up-regulation of long genes after MeCP2 knockdown)” value ([4]; cultured cortical neurons, MeCP2 RNAi knockdown, topotecan from DIV 4 to DIV 10) was “dose-dependent reversal of long gene misregulation”.
